One experiment concerns the target T1, PRMT6 (Homo sapiens, UniProt Q96LA8).
T1 construct: Flag-PRMT6-His; made in house; host or cells: HEK 293F cells (BacMam virus)
The experiment can be described thus: PRMT6 Biochemical Assay (3H-SAM Flashplate, peptide substrate). As to conditions: 30 min preincubation, room temperature. The source says:
S-adenosylmethionine (SAM), S-adenosylhomocysteine (SAH), bicine, Tween20, dimethylsulfoxide (DMSO), bovine skin gelatin (BSG), sodium butyrate and Tris(2-carboxyethyl)phosphine hydrochloride solution (TCEP) were purchased from Sigma-Aldrich at the highest level of purity possible. ^3H-SAM was purchase from American Radiolabeled Chemicals with a specific activity of 80 Ci/mmol. 384-well streptavidin Flashplates were purchased from PerkinElmer.
Peptide representative of human histone H4 residues 36-50 was synthesized with an N-terminal linker-affinity tag motif and a C-terminal amide cap by 21st Century Biochemicals. The peptide was purified by high-performance liquid chromatography (HPLC) to greater than 95% purity and confirmed by liquid chromatography mass spectrometry (LC-MS). The sequence was Biot-Ahx-[…]-amide and contained a monomethylated lysine at position 44 (SEQ ID NO.:5).
Full-length human PRMT6 (NM_018137.2) transcript clone was amplified from an HEK 293 cDNA library, incorporating a flanking 5′ sequence encoding a FLAG tag ([…]) (SEQ ID NO.:6) fused directly to Ser 2 of PRMT6 and a 3′ sequence encoding a hexa His sequence (HHHHHH) fused directly to Asp 375. The amplified gene was subcloned into pFastBacMam (Viva Biotech).
Recombinant baculovirus were generated according to Bac-to-Bac kit instructions (Life Technologies). […] Infections were carried out at 37° C. for 48 hours, harvested by centrifugation, and stored at −80° C. for purification.
Column was washed with 20 mM imidazole in the same buffer and Flag-PRMT6-His was eluted with 150 mM imidazole. Pooled fractions were dialysed against buffer Ni-A and further purified by anti-flag M2 affinity chromatography. Flag-PRMT6-His was eluted with 200 ug/ml FLAG peptide in the same buffer. Pooled fractions were dialysed in 20 mM Tris, 150 mM NaCl, 10% glycerol and 5 mM β-mercaptoethanol, pH 7.8. The purity of recovered protein was 95%.
General Procedure for PRMT6 Enzyme Assays on Peptide Substrates.
The assays were all performed in a buffer consisting of 20 mM Bicine (pH=7.6), 1 mM TCEP, 0.005% BSG, and 0.002% Tween 20, prepared on the day of use. Compounds in 100% DMSO (1 ul) were spotted into a polypropylene 384-well V-bottom plates (Greiner) using a Platemate Plus outfitted with a 384-channel head (Thermo Scientific). DMSO (1 ul) was added to Columns 11, 12, 23, 24, rows A-H for the maximum signal control and 1 ul of SAH, a known product and inhibitor of PRMT6, was added to columns 11, 12, 23, 24, rows I-P for the minimum signal control. A cocktail (40 ul) containing the PRMT6 enzyme was added by Multidrop Combi (Thermo-Fisher). The compounds were allowed to incubate with PRMT6 for 30 min at room temperature, then a cocktail (10 ul) containing SAM and peptide was added to initiate the reaction (final volume=51 ul). The final concentrations of the components were as follows: PRMT6 was 1 nM, ^3H-SAM was 200 nM, non-radiolabeled SAM was 250 nM, peptide was 75 nM, SAH in the minimum signal control wells was 1 mM, and the DMSO concentration was 2%. The assays were stopped by the addition of non-radiolabeled SAM (10 ul) to a final concentration of 400 uM, which dilutes the ^3H-SAM to a level where its incorporation into the peptide substrate is no longer detectable. 50 ul of the reaction in the 384-well polypropylene plate was then transferred to a 384-well Flashplate and the biotinylated peptides were allowed to bind to the streptavidin surface for at least 1 hour before being washed once with 0.1% Tween20 in a Biotek ELx405 plate washer. The plates were then read in a PerkinElmer TopCount plate reader to measure the quantity of ^3H-labeled peptide bound to the Flashplate surface, measured as disintegrations per minute (dpm) or alternatively, referred to as counts per minute (cpm).
Where dpm=disintegrations per minute, cmpd=signal in assay well, and min and max are the respective minimum and maximum signal controls. […]

For experiment [1], the system named is mono-methyl arginine in RKO cells. Briefly: RKO Methylation Assay, In Cell Western for mono-methyl arginine and DNA content. It counts as cell-based. As to conditions: Homo sapiens, 72 hours, percent activation of mono-methyl arginine signal. An excerpt: RKO Methylation Assay RKO adherent cells were purchased from ATCC (American Type Culture Collection), Manassas, Va., USA. DMEM/Glutamax medium, penicillin-streptomycin, heat inactivated fetal bovine serum, 0.05% trypsin and D-PBS were purchased from Life Technologies, Grand Island, N.Y., USA. Odyssey blocking buffer, 800CW goat anti-rabbit IgG (H+L) antibody, and Licor Odyssey infrared scanner were purchased from Licor Biosciences, Lincoln, Nebr., USA. Mono-methyl arginine antibody was purchased from Cell Signaling Technology, Danvers, Mass., USA. Methanol was purchased from VWR, Franklin, Mass., USA. 10% Tween 20 was purchased from KPL, Inc., Gaithersburg, Md., USA. DRAQ5 was purchased from Biostatus Limited, Leicestershire, UK. RKO adherent cells were maintained in growth medium (DMEM/Glutamax medium supplemented with 10% v/v heat inactivated fetal bovine serum and 100 units/mL penicillin-streptomycin) and cultured at 37° C. under 5% CO2. Cell Treatment, in Cell Western (ICW) for Detection of Mono-Methyl Arginine and DNA Content. RKO cells were seeded in assay medium at a concentration of 20,000 cells per mL to a poly-D-lysine coated 384 well culture plate (BD Biosciences 356697) with 50 μL per well. Compound (100 nL) from a 96-well source plate was added directly to 384 well cell plate. Plates were incubated at 37° C., 5% CO2 for 72 hours. After three days of incubation, plates were brought to room temperature outside of the incubator for ten minutes and blotted on paper towels to remove cell media. 50 μL of ice cold 100% methanol was added directly to each well and incubated for 30 min at room temperature. After 30 min, plates were transferred to a Biotek EL406 plate washer and washed 2 times with 100 μL per well of wash buffer (IX PBS). Next 60 μL per well of Odyssey blocking buffer (Odyssey Buffer with 0.1% Tween 20 (v/v)) were added to each plate and incubated 1 hour at room temperature. Blocking buffer was removed and 20 μL per well of primary antibody was added (mono-methyl arginine diluted 1:200 in Odyssey buffer with 0.1% Tween 20 (v/v)) and plates were incubated overnight (16 hours) at 4° C. Plates were washed 5 times with 100 μL per well of wash buffer. Next 20 μL per well of secondary antibody was added (1:200 800CW goat anti-rabbit IgG (H+L) antibody, 1:1000 DRAQ5 (Biostatus limited) in Odyssey buffer with 0.1% Tween 20 (v/v)) and incubated for 1 hour at room temperature. The plates were washed 5 times with 100 μL per well wash buffer then 2 times with 100 μL per well of water. Plates were allowed to dry at room temperature then imaged on the Licor Odyssey machine which measures integrated intensity at 700 nm and 800 nm wavelengths. Both 700 and 800 channels were scanned. Calculations: First, the ratio for each well was determined by: Each plate included fourteen control wells of DMSO only treatment (minimum activation) as well as fourteen control wells for maximum activation treated with 20 μM of a reference compound. The average of the ratio values for each control type was calculated and used to determine the percent activation for each test well in the plate. Reference compound was serially diluted three-fold in DMSO for a total of nine test concentrations, beginning at 20 μM. Percent activation was determined and EC30 curves were generated using triplicate wells per concentration of compound.

T1 sequence (Q96LA8 with tags, fused parts or gaps): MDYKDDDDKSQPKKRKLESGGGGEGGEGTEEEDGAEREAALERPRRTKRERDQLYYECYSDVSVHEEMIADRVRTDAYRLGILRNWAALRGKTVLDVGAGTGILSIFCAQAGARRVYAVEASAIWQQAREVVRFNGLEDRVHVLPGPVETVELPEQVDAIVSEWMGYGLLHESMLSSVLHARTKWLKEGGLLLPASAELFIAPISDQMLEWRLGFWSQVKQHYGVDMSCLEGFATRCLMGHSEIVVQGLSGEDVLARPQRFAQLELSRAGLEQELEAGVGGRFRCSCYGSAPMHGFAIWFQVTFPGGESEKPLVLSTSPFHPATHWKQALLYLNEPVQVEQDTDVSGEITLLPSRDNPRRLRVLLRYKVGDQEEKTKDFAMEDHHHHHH

One may read the IC50 as the midpoint of a concentration-inhibition curve. Lower therefore signals greater potency. For orientation: EC30 means the concentration at which the effect reaches the 30% level. Low values mean greater potency, high ones weaker potency. As to `Cc1nn(C)c(C)c1-c1n[nH]cc1CN(C)CCN` [Compound 26], on PRMT6, the IC50 was at least 10 µM. In experiment [1], this molecule showed an EC30 of at least 12 µM.
